Assay results from the supplement of paper PMC10307832.

How the values were obtained:
Test in all cases: relative viability (nuclei count vs DMSO), 5 days (fraction); higher = more cells survive
201T = tested on: 201T
In short: (§1)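 Lung cancer cell lines in 1536-well plates were dosed by pin tool the day after seeding, either with one drug alone or with a fixed anchor-drug dose plus five library-drug doses (not always all listed) in √10 steps. After 5 days, cells were fixed and their nuclei stained in one step (final 0.05% Triton X-100, 1% formaldehyde, 1 ug/ml Hoechst), then counted on 4× images. Relative viability is the nuclei count in treated wells divided by that in vehicle wells. Values are medians of duplicate plates.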

BEN = tested on: BEN
In short: as §1

EMC-BAC-2 = tested on: EMC-BAC-2
In short: as §1

HARA = tested on: HARA
In short: as §1

HCC-44 = tested on: HCC-44
In short: as §1

LCLC-103H = tested on: LCLC-103H
In short: as §1

LOU-NH91 = tested on: LOU-NH91
In short: as §1

NCI-H1395 = tested on: NCI-H1395
In short: as §1

NCI-H1993 = tested on: NCI-H1993
In short: as §1

NCI-H2023 = tested on: NCI-H2023
In short: as §1

NCI-H2087 = tested on: NCI-H2087
In short: as §1

NCI-H2126 = tested on: NCI-H2126
In short: as §1

NCI-H2347 = tested on: NCI-H2347
In short: as §1

NCI-H23 = tested on: NCI-H23
In short: as §1

NCI-H3122 = tested on: NCI-H3122
In short: as §1

NCI-H441 = tested on: NCI-H441
In short: as §1

NCI-H522 = tested on: NCI-H522
In short: as §1

NCI-H596 = tested on: NCI-H596
In short: as §1

NCI-H647 = tested on: NCI-H647
In short: as §1

NCI-H650 = tested on: NCI-H650
In short: as §1

NCI-H838 = tested on: NCI-H838
In short: as §1

O=c1cc(-c2cccc3c2Sc2ccccc2S3)oc(N2CCOCC2)c1 + Nc1nc2[nH]cc(CCc3ccc(C(=O)N[C@@H](CCC(=O)O)C(=O)O)cc3)c2c(=O)[nH]1 [Pemetrexed] (partner 0.2 µM)
relative viability (201T; first compound 0.08 µM): 0.302
relative viability (201T; first compound 0.253 µM): 0.353
relative viability (201T; first compound 0.8 µM): 0.37
relative viability (201T; first compound 2.53 µM): 0.287
relative viability (201T; first compound 8 µM): 0.302
relative viability (BEN; first compound 0.08 µM): 0.72
relative viability (BEN; first compound 0.253 µM): 0.834
relative viability (BEN; first compound 0.8 µM): 0.696
relative viability (BEN; first compound 2.53 µM): 0.801
relative viability (BEN; first compound 8 µM): 1.07
relative viability (EMC-BAC-2; first compound 0.08 µM): 0.396
relative viability (EMC-BAC-2; first compound 0.253 µM): 0.473
relative viability (EMC-BAC-2; first compound 0.8 µM): 0.442
relative viability (EMC-BAC-2; first compound 2.53 µM): 0.429
relative viability (EMC-BAC-2; first compound 8 µM): 0.463
relative viability (HARA; first compound 0.08 µM): 0.24
relative viability (HARA; first compound 0.253 µM): 0.227
relative viability (HARA; first compound 0.8 µM): 0.228
relative viability (HARA; first compound 2.53 µM): 0.251
relative viability (HARA; first compound 8 µM): 0.286
relative viability (HCC-44; first compound 0.08 µM): 0.63
relative viability (HCC-44; first compound 0.253 µM): 0.641
relative viability (HCC-44; first compound 0.8 µM): 0.607
relative viability (HCC-44; first compound 2.53 µM): 0.67
relative viability (HCC-44; first compound 8 µM): 0.676
relative viability (LCLC-103H; first compound 0.08 µM): 0.44
relative viability (LCLC-103H; first compound 0.253 µM): 0.467
relative viability (LCLC-103H; first compound 0.8 µM): 0.473
relative viability (LCLC-103H; first compound 2.53 µM): 0.423
relative viability (LCLC-103H; first compound 8 µM): 0.438
relative viability (LOU-NH91; first compound 0.08 µM): 0.332
relative viability (LOU-NH91; first compound 0.253 µM): 0.34
relative viability (LOU-NH91; first compound 0.8 µM): 0.367
relative viability (LOU-NH91; first compound 2.53 µM): 0.397
relative viability (LOU-NH91; first compound 8 µM): 0.31
relative viability (NCI-H1395; first compound 0.08 µM): 0.842
relative viability (NCI-H1395; first compound 0.253 µM): 0.764
relative viability (NCI-H1395; first compound 0.8 µM): 0.936
relative viability (NCI-H1395; first compound 2.53 µM): 0.765
relative viability (NCI-H1395; first compound 8 µM): 1.09
relative viability (NCI-H1993; first compound 0.08 µM): 0.588
relative viability (NCI-H1993; first compound 0.253 µM): 0.702
relative viability (NCI-H1993; first compound 0.8 µM): 0.567
relative viability (NCI-H1993; first compound 2.53 µM): 0.497
relative viability (NCI-H1993; first compound 8 µM): 0.613
relative viability (NCI-H2023; first compound 0.08 µM): 0.222
relative viability (NCI-H2023; first compound 0.253 µM): 0.3
relative viability (NCI-H2023; first compound 0.8 µM): 0.198
relative viability (NCI-H2023; first compound 2.53 µM): 0.213
relative viability (NCI-H2023; first compound 8 µM): 0.221
relative viability (NCI-H2087; first compound 0.08 µM): 0.669
relative viability (NCI-H2087; first compound 0.253 µM): 0.662
relative viability (NCI-H2087; first compound 0.8 µM): 0.726
relative viability (NCI-H2087; first compound 2.53 µM): 0.649
relative viability (NCI-H2087; first compound 8 µM): 0.674
relative viability (NCI-H2126; first compound 0.08 µM): 0.682
relative viability (NCI-H2126; first compound 0.253 µM): 0.785
relative viability (NCI-H2126; first compound 0.8 µM): 0.71
relative viability (NCI-H2126; first compound 2.53 µM): 0.695
relative viability (NCI-H2126; first compound 8 µM): 0.645
relative viability (NCI-H2347; first compound 0.08 µM): 0.386
relative viability (NCI-H2347; first compound 0.253 µM): 0.458
relative viability (NCI-H2347; first compound 0.8 µM): 0.465
relative viability (NCI-H2347; first compound 2.53 µM): 0.424
relative viability (NCI-H2347; first compound 8 µM): 0.435
relative viability (NCI-H23; first compound 0.08 µM): 0.584
relative viability (NCI-H23; first compound 0.253 µM): 0.902
relative viability (NCI-H23; first compound 0.8 µM): 0.72
relative viability (NCI-H23; first compound 2.53 µM): 0.518
relative viability (NCI-H23; first compound 8 µM): 0.575
relative viability (NCI-H3122; first compound 0.08 µM): 0.205
relative viability (NCI-H3122; first compound 0.253 µM): 0.197
relative viability (NCI-H3122; first compound 0.8 µM): 0.186
relative viability (NCI-H3122; first compound 2.53 µM): 0.191
relative viability (NCI-H3122; first compound 8 µM): 0.18
relative viability (NCI-H441; first compound 0.08 µM): 0.258
relative viability (NCI-H441; first compound 0.253 µM): 0.268
relative viability (NCI-H441; first compound 0.8 µM): 0.255
relative viability (NCI-H441; first compound 2.53 µM): 0.26
relative viability (NCI-H441; first compound 8 µM): 0.241
relative viability (NCI-H522; first compound 0.08 µM): 0.844
relative viability (NCI-H522; first compound 0.253 µM): 1.13
relative viability (NCI-H522; first compound 0.8 µM): 0.851
relative viability (NCI-H522; first compound 2.53 µM): 1.03
relative viability (NCI-H522; first compound 8 µM): 1.12
relative viability (NCI-H596; first compound 0.08 µM): 0.422
relative viability (NCI-H596; first compound 0.253 µM): 0.52
relative viability (NCI-H596; first compound 0.8 µM): 0.536
relative viability (NCI-H596; first compound 2.53 µM): 0.543
relative viability (NCI-H596; first compound 8 µM): 0.478
relative viability (NCI-H647; first compound 0.08 µM): 0.168
relative viability (NCI-H647; first compound 0.253 µM): 0.149
relative viability (NCI-H647; first compound 0.8 µM): 0.17
relative viability (NCI-H647; first compound 2.53 µM): 0.169
relative viability (NCI-H647; first compound 8 µM): 0.159
relative viability (NCI-H650; first compound 0.08 µM): 0.917
relative viability (NCI-H650; first compound 0.253 µM): 0.964
relative viability (NCI-H650; first compound 0.8 µM): 0.878
relative viability (NCI-H650; first compound 2.53 µM): 0.74
relative viability (NCI-H650; first compound 8 µM): 0.866
relative viability (NCI-H838; first compound 0.08 µM): 0.266
relative viability (NCI-H838; first compound 0.253 µM): 0.245
relative viability (NCI-H838; first compound 0.8 µM): 0.249
relative viability (NCI-H838; first compound 2.53 µM): 0.226
relative viability (NCI-H838; first compound 8 µM): 0.226
